Assay results reported in patent US12617797B2, “Substituted pyrazolo [1,5-a]pyrimidines having multimodal activity against pain” (ESTEVE PHARMACEUTICALS, S.A., priority 2020, dated 2026).

Legend:
[1] = molecular target: Human α2δ-1 subunit of Cav2.2 calcium channel (Homo sapiens, UniProt P54289); experiment: Human α2δ-1 subunit of Cav2.2 calcium channel assay ([3H]-gabapentin binding); details: binding to the α2δ-1 subunit of voltage-gated calcium channels expressed as Ki; + also covers inhibition between 1% and 50%
Outline: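 Membranes enriched in human α2δ-1 incubated with 15 nM [3H]-gabapentin in 10 mM Hepes-KOH pH 7.4, 60 min at 27 °C; nonspecific binding defined with 10 μM pregabalin. Filtration and scintillation counting; % inhibition at 1 or 10 μM, or Ki from five concentrations.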

Human σ1 receptor = molecular target: T1, Human σ1 receptor (Homo sapiens, UniProt Q99720); experiment: Human σ1 receptor radioligand assay ([3H](+)-pentazocine binding, transfected HEK-293 membranes); details: binding to σ1 receptor expressed as Ki; + also covers inhibition between 1% and 50%; read-out: σ-1 binding
T1 construct: expressed in transfected cells; host or cells: HEK-293
Outline: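 Membranes (7 μg) were incubated with 5 nM [3H](+)-pentazocine in 50 mM Tris-HCl pH 8 for 120 min at 37° C. Non-specific binding was defined with 10 μM haloperidol. Values are % inhibition at 1 or 10 μM or Ki from five concentrations, read by filtration and scintillation counting.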

Sequence of Human α2δ-1 subunit of Cav2.2 calcium channel (P54289 25-1103): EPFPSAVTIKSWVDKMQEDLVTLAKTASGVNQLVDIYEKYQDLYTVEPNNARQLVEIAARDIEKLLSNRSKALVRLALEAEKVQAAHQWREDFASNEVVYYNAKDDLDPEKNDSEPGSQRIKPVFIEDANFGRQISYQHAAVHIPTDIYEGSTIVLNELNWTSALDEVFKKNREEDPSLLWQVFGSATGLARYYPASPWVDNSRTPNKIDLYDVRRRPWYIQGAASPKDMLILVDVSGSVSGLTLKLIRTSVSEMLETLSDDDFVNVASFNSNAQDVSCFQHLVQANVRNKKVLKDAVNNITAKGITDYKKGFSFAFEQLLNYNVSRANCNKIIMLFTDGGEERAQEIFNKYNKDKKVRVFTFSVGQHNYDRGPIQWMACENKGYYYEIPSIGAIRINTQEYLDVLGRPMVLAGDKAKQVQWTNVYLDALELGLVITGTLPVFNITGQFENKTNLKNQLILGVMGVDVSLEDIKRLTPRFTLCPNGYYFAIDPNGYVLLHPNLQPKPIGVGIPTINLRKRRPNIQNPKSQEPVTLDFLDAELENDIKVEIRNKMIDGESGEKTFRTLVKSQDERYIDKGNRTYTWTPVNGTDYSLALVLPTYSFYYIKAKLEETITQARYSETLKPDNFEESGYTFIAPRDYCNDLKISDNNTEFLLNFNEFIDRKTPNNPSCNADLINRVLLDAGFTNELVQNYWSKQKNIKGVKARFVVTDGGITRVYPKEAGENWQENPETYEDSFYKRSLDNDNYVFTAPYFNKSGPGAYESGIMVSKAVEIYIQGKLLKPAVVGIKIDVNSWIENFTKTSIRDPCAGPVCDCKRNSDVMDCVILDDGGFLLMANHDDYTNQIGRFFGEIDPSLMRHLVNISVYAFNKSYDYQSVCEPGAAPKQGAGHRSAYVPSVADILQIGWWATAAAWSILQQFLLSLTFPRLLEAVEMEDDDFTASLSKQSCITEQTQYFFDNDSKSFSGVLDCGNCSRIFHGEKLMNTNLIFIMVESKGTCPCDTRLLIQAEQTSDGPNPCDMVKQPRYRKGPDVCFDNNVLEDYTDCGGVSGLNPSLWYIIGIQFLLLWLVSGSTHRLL
T1 sequence (Q99720 whole entry): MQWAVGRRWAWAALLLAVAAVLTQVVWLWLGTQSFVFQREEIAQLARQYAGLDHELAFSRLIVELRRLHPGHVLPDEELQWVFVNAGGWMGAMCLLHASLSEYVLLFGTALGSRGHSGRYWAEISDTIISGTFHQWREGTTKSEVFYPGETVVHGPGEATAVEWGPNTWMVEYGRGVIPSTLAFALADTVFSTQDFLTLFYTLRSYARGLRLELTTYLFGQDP

SMILES	Ki [1] [nM]	Ki (Human σ1 receptor) [nM]
Cc1nn2c(C3CCCN(Cc4ccc(Cl)cc4)C3)ccnc2c1-c1ccnc(CO)c1 (stereo not drawn) [Example 134, (4-(7-(1-(4-Chlorobenzyl)piperidin-3-yl)-2-methylpyrazolo[1,5-a]pyrimidin-3-yl)pyridin-2-yl)methanol]	> 5000	500 to 1000
Cc1nn2c(C3CCCN(Cc4ccc(Cl)cc4)C3)ccnc2c1-c1ccc(CO)nc1 (stereo not drawn) [Example 135, (5-(7-(1-(4-Chlorobenzyl)piperidin-3-yl)-2-methylpyrazolo[1,5-a]pyrimidin-3-yl)pyridin-2-yl)methanol]	> 5000	> 1000
CCOc1cc(-c2c(C)nn3c(C4CCCN(Cc5ccc(Cl)cc5)C4)ccnc23)ccn1 (stereo not drawn) [Example 136, 7-(1-(4-Chlorobenzyl)piperidin-3-yl)-3-(2-ethoxypyridin-4-yl)-2-methylpyrazolo[1,5-a]pyrimidine]	> 5000	> 1000
Cc1nn2c(C3CCCN(Cc4ccc(Cl)cc4)C3)ccnc2c1-c1ccnc(OCC2CC2)c1 (stereo not drawn) [Example 137, 7-(1-(4-Chlorobenzyl)piperidin-3-yl)-3-(2-(cyclopropylmethoxy)pyridin-4-yl)-2-methylpyrazolo[1,5-a]pyrimidine]	> 5000	> 1000
Cc1nn2c(C3CCCN(Cc4ccc(Cl)cc4)C3)ccnc2c1-c1cncn1C (stereo not drawn) [Example 138, 7-(1-(4-Chlorobenzyl)piperidin-3-yl)-2-methyl-3-(1-methyl-1H-imidazol-5-yl)pyrazolo[1,5-a]pyrimidine]	> 5000	> 1000
Cc1nn2c(C3CCCN(Cc4ccc(Cl)cc4)C3)ccnc2c1-c1ccncn1 (stereo not drawn) [Example 139, 7-(1-(4-Chlorobenzyl)piperidin-3-yl)-2-methyl-3-(pyrimidin-4-yl)pyrazolo[1,5-a]pyrimidine]	> 5000	> 1000
Cc1nn2c(C3CCCN(Cc4ccc(Cl)cc4)C3)ccnc2c1-c1ccnc(N)n1 (stereo not drawn) [Example 140, 4-(7-(1-(4-Chlorobenzyl)piperidin-3-yl)-2-methylpyrazolo[1,5-a]pyrimidin-3-yl)pyrimidin-2-amine]	500 to 5000	> 1000
Cc1nn2c(C3CCCN(Cc4ccc(Cl)cc4)C3)ccnc2c1N(C)C (stereo not drawn) [Example 141, 7-(1-(4-Chlorobenzyl)piperidin-3-yl)-N,N,2-trimethylpyrazolo[1,5-a]pyrimidin-3-amine]	> 5000	< 500
Cc1nn2c(C3CCCN(Cc4ccccc4)C3)ccnc2c1N(C)C (stereo not drawn) [Example 142, 7-(1-Benzylpiperidin-3-yl)-N,N,2-trimethylpyrazolo[1,5-a]pyrimidin-3-amine]	> 5000	> 1000
Cc1nn2c(C3CCCN(Cc4ccccc4)C3)ccnc2c1N(C)Cc1ccccc1 (stereo not drawn) [Example 143, N-Benzyl-7-(1-benzylpiperidin-3-yl)-N,2-dimethylpyrazolo[1,5-a]pyrimidin-3-amine]	> 5000	500 to 1000
Cc1nn2c(C3CCCN(Cc4ccc(Cl)cc4)C3)ccnc2c1CNCc1ccccc1 (stereo not drawn) [Example 144, N-Benzyl-1-(7-(1-(4-chlorobenzyl)piperidin-3-yl)-2-methylpyrazolo[1,5-a]pyrimidin-3-yl)methanamine]	500 to 5000	< 500
Cc1nn2c(C3CCCN(Cc4ccc(Cl)cc4)C3)ccnc2c1CN(C)Cc1ccccc1 (stereo not drawn) [Example 145, N-Benzyl-1-(7-(1-(4-chlorobenzyl)piperidin-3-yl)-2-methylpyrazolo[1,5-a]pyrimidin-3-yl)-N-methylmethanamine]	500 to 5000	< 500
Cc1nn2c(C3CCCN(Cc4ccc(Cl)cc4)C3)ccnc2c1CNCc1ccc(F)cc1 (stereo not drawn) [Example 146, 1-(7-(1-(4-Chlorobenzyl)piperidin-3-yl)-2-methylpyrazolo[1,5-a]pyrimidin-3-yl)-N-(4-fluorobenzyl)methanamine]	500 to 5000	< 500
Cc1nn2c(C3CCCN(Cc4ccc(Cl)cc4)C3)ccnc2c1CNCc1ccc(CO)cc1 (stereo not drawn) [Example 147, (4-((((7-(1-(4-Chlorobenzyl)piperidin-3-yl)-2-methylpyrazolo[1,5-a]pyrimidin-3-yl)methyl)amino)methyl)phenyl)methanol]	> 5000	< 500
Cc1nn2c(C3CCCN(Cc4ccc(Cl)cc4)C3)ccnc2c1CNCc1ccncc1 (stereo not drawn) [Example 148, 1-(7-(1-(4-Chlorobenzyl)piperidin-3-yl)-2-methylpyrazolo[1,5-a]pyrimidin-3-yl)-N-(pyridin-4-ylmethyl)methanamine]	500 to 5000	< 500
Cc1nn2c(C3CCCN(Cc4ccc(Cl)cc4)C3)ccnc2c1CNCc1cccs1 (stereo not drawn) [Example 149, 1-(7-(1-(4-Chlorobenzyl)piperidin-3-yl)-2-methylpyrazolo[1,5-a]pyrimidin-3-yl)-N-(thiophen-2-ylmethyl)methanamine]	500 to 5000	< 500
Cc1ccc(CNCc2c(C)nn3c(C4CCCN(Cc5ccc(Cl)cc5)C4)ccnc23)s1 (stereo not drawn) [Example 150, 1-(7-(1-(4-Chlorobenzyl)piperidin-3-yl)-2-methylpyrazolo[1,5-a]pyrimidin-3-yl)-N-((5-methylthiophen-2-yl)methyl)methanamine]	500 to 5000	< 500
Cc1nn2c(C3CCCN(Cc4ccc(Cl)cc4)C3)ccnc2c1CNCc1ccn(C)n1 (stereo not drawn) [Example 151, 1-(7-(1-(4-Chlorobenzyl)piperidin-3-yl)-2-methylpyrazolo[1,5-a]pyrimidin-3-yl)-N-((1-methyl-1H-pyrazol-3-yl)methyl)methanamine]	500 to 5000	< 500
Cc1nnc(CNCc2c(C)nn3c(C4CCCN(Cc5ccc(Cl)cc5)C4)ccnc23)o1 (stereo not drawn) [Example 152, 1-(7-(1-(4-Chlorobenzyl)piperidin-3-yl)-2-methylpyrazolo[1,5-a]pyrimidin-3-yl)-N-((5-methyl-1,3,4-oxadiazol-2-yl)methyl)methanamine]	> 5000	500 to 1000
Cc1nn2c(C3CCCN(Cc4ccc(Cl)cc4)C3)ccnc2c1CNCCc1ccccc1 (stereo not drawn) [Example 153, N-((7-(1-(4-Chlorobenzyl)piperidin-3-yl)-2-methylpyrazolo[1,5-a]pyrimidin-3-yl)methyl)-2-phenylethan-1-amine]	500 to 5000	< 500
COc1ccc(CCNCc2c(C)nn3c(C4CCCN(Cc5ccc(Cl)cc5)C4)ccnc23)cc1 (stereo not drawn) [Example 154, N-((7-(1-(4-Chlorobenzyl)piperidin-3-yl)-2-methylpyrazolo[1,5-a]pyrimidin-3-yl)methyl)-2-(4-methoxyphenyl)ethan-1-amine]	500 to 5000	500 to 1000
CCNCc1c(C)nn2c(C3CCCN(Cc4ccc(Cl)cc4)C3)ccnc12 (stereo not drawn) [Example 155, N-((7-(1-(4-Chlorobenzyl)piperidin-3-yl)-2-methylpyrazolo[1,5-a]pyrimidin-3-yl)methyl)ethanamine]	500 to 5000	< 500
Cc1nn2c(C3CCCN(Cc4ccc(Cl)cc4)C3)ccnc2c1CNCC(F)(F)F (stereo not drawn) [Example 156, N-((7-(1-(4-Chlorobenzyl)piperidin-3-yl)-2-methylpyrazolo[1,5-a]pyrimidin-3-yl)methyl)-2,2,2-trifluoroethan-1-amine]	> 5000	500 to 1000
Cc1nn2c(C3CCCN(Cc4ccc(Cl)cc4)C3)ccnc2c1CNCC1CC1 (stereo not drawn) [Example 157, 1-(7-(1-(4-Chlorobenzyl)piperidin-3-yl)-2-methylpyrazolo[1,5-a]pyrimidin-3-yl)-N-(cyclopropylmethyl)methanamine]	500 to 5000	< 500
